Reference: US10351530B2, “Arylcyclohexyl pyrazoles as NRF2 regulators” (GlaxoSmithKline Intellectual Property Development Limited, priority 2015, dated 2019)

Key:
[1] = tested on: NQO1 specific enzyme activity in BEAS-2B cells; assay: BEAS-2B NQO1 MTT Assay; type: cell-based; details: Homo sapiens, BEAS-2B, 48 h, NQO1 specific activity induction
Description: NAD(P)H:quinone oxidoreductase 1 (NQO1), also called DT diaphorase, is a homodimeric FAD-containing enzyme that catalyzes obligatory NAD(P)H-dependent two-electron reductions of quinones and protects cells against the toxic and neoplastic effects of free radicals and reactive oxygen species arising from one-electron reductions. The transcription of NQO1 is finely regulated by NRF2, and thus NQO1 activity is a good marker for NRF2 activation. On day one, frozen BEAS-2B cells (ATCC) are thawed in a water bath, counted, and re-suspended at a concentration of 250,000 cells/mL. Fifty microliters of cells are plated in 384 well black clear-bottomed plates. Plates are incubated at 37° C., 5% CO2 overnight. On day two, plates are centrifuged and 50 nL of compound or controls are added to the cells. Plates are then incubated at 37° C., 5% CO2 for 48 hours. On day four, medium is aspirated from the plate and crude cell lysates are made by adding 13 uL of 1× Cell Signaling Technologies lysis buffer with 1 Complete, Mini, EDTA-free Protease Inhibitor Tablet (Roche) for each 10 mL of lysis buffer. After lysis plates are incubated for 20 minutes at room temperature. Two microliters of lysate are removed for use in Cell Titer Glo assay (Promega) and MTT cocktail is prepared (Prochaska et. al. 1998) for measurement of NQO1 activity. Fifty microliters of MTT cocktail is added to each well, plate is centrifuged, and analyzed on an Envision plate reader (Perkin Elmer) using Absorbance 570 nm label for 30 minutes. Product formation is measured kinetically and the pEC50 of NQO1 specific activity induction is calculated by plotting the change in absorbance (Delta OD/min) versus the log of compound concentration followed by 3-parameter fitting.

Keap1/NRF2 = molecular target: T1, Keap1/NRF2 (Homo sapiens, UniProt Q14145); assay: NRF2-Keap1 FP Assay (Kelch domain (321-609) of Keap1, TAMRA-labeled NRF2 ETGE peptide); type: binding; details: Keap1 (321-609) 20 nM, Tamra labeled peptide 8 nM
T1 construct: Keap1 (321-609) is diluted to 40 nM (2×) in 1× assay buffer
T1 sequence (Q14145 321-609): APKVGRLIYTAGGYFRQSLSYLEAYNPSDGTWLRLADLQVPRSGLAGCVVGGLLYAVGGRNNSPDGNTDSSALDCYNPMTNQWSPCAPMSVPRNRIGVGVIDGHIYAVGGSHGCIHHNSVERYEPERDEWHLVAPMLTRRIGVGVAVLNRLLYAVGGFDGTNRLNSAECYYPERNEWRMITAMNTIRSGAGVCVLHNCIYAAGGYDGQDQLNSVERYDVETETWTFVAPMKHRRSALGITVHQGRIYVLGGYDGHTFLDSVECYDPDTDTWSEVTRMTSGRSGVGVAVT
Description: One model for the NRF2-Keap1 interaction is through two binding sites in the Neh2 domain on NRF2. The two sites are referred to as the DLG binding motif (latch domain, uM affinity) and the ETGE binding motif (hinge domain, nM affinity). The Keap1 protein consists of an N-terminal region (NTR), a broad complex, tramtrack, and brick a′ brac domain (BTB), an intervening region (IVR), a double glycine repeat domain (DGR or Kelch), and a C-terminal region. The DLG and ETGE motifs of NRF2's Neh2 domain bind to the Kelch domain of Keap1 at different affinities. In the Keap1 Kelch fluorescence polarization (FP) assay, a TAMRA-labeled 16 mer peptide (AFFAQLQLDEETGEFL) containing the ETGE motif of NRF2 and the Kelch domain (321-609) of Keap1 is used. The assay determines if a compound interferes with the binding between Keap1 […] and the TAMRA-labeled peptide. Binding of TAMRA-labeled NRF2 peptide to Keap1 (321-609) results in a high FP signal. If a compound interferes with the binding between the peptide and the protein, it will cause the assay signal to decrease. Thus, assay signal is inversely proportional to binding inhibition.
100 nl of 100× compound dose response curves (serial 3-fold dilutions) in DMSO are stamped using an Echo liquid handling system (Labcyte) into 384-well low volume black assay plates (Greiner, #784076), with DMSO in columns 6 and 18. The top concentration of compound is located in columns 1 and 13. Keap1 (321-609) is diluted to 40 nM (2×) in 1× assay buffer (50 mM Tris, pH 8.0, 100 mM NaCl, 5 mM MgCl2, 1 mM DTT, 2 mM CHAPS, and 0.005% BSA) and 5 ul is added using a Multidrop Combi (Thermo Electron Corporation) equipped with a metal tip dispenser to all wells of the compound plate, except column 18. Column 18 receives only 5 ul of assay buffer. Immediately, 5 uL of 16 nM (2×) of Tamra labeled peptide (AFFAQLQLDEETGEFL, 21st Century Biochemicals) is added to all wells of the plate. The plates are spun at 500 rpm for 1 min, incubated for 1 hr at room temperature, and read on an Analyst GT (Molecular Devices) equipped with excitation (530/25 nm) and emission (580/10 nm) filters designed for Tamra probes. A 561 nm dichroic mirror is also used in the Analyst. The final assay concentrations of Keap1 (321-609) and Tamra labeled peptide are 20 nM and 8 nM, respectively. Fluorescence measurements, represented as mP, are used in the transformation of the data. Compound activity is calculated based on percent inhibition, normalized against controls in the assay (Control 1 contains the Tamra peptide and Keap1 (321-609) together (0% response) and control 2 contains the Tamra peptide alone (100% response)). Data analysis is handled using the software package Abase XE (Surrey, United Kingdom. The % inhibition values are calculated by the equation: 100−(100*((compound response-average control 2)/(average control 1−average control 2))). For calculation of pIC50s, Abase XE uses a four parameter equation.

NRF2/Keap1 = molecular target: T2, NRF2/Keap1 (Homo sapiens, UniProt Q14145); assay: NRF2-Keap1 TR-FRET Assay (full length NRF2 and full length Keap1); type: binding; details: 25 nM Keap1-FlagHis, 50 nM biotin-NRF2 added
T2 construct: full length NRF2 protein and full length Keap1 protein (Keap1 exists a dimer) are used
T2 sequence (Q14145 whole entry): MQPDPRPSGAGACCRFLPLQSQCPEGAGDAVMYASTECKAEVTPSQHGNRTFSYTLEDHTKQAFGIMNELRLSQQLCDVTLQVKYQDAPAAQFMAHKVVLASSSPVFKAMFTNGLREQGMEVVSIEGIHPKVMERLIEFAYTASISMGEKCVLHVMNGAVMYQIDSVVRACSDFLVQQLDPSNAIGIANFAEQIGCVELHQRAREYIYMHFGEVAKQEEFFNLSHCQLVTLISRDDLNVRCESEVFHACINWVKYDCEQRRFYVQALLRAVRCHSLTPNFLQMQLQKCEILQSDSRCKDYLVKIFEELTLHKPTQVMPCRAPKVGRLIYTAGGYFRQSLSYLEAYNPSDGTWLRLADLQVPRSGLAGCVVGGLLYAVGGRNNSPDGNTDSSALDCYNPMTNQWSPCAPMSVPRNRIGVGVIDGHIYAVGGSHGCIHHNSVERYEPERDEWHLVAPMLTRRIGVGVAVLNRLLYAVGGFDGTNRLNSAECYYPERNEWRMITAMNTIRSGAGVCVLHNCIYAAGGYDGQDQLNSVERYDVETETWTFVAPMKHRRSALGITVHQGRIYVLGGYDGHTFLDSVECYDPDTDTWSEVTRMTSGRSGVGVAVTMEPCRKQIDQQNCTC
Description: In the NRF2-Keap1 TR-FRET (time-resolved fluorescence resonance energy transfer) assay, full length NRF2 protein and full length Keap1 protein (Keap1 exists a dimer) are used. The assay detects the ability of compound to displace the binding of FlagHis-tagged Keap1 with biotinylated, Avi-tagged NRF2 protein. Biotin-NRF2 binds to streptavidin-europium (a component of the detection mix) and Keap1-FlagHis is recognized by anti-Flag APC (allophycocyanin) antibody (also a component of the detection mix). If binding occurs between the two proteins, there will be an energy transfer from the Eu+3 (donor) at 615 nm to the APC (acceptor) at 665 nm. A potential Keap1 inhibitor will cause a reduction in the TR-FRET signal by interfering with the binding of Keap1 to NRF2.
One hundred nanoliters of 100× compound dose response curves (serial 3-fold dilutions) in DMSO are stamped using an Echo liquid handling system (Labcyte) into 384-well, low volume, black assay plates (Greiner, #784076), with DMSO in columns 6 and 18. The top concentration of compound is located in columns 1 and 13. All reagents are diluted in assay buffer (50 mM Tris, pH 8.0, 5 mM MgCl2, 100 mM NaCl, 0.005% BSA, 1 mM DTT, and 2 mM CHAPS). The BSA, DTT, and CHAPS are added to the assay buffer on the day of assay. Using a Multidrop Combi (Thermo Electron Corporation) equipped with a metal tip dispenser, 5 ul of 25 nM Keap1-FlagHis protein is added to all wells of the compound plate, with the exception of the wells in column 18. Wells in column 18 receive 5 ul of assay buffer instead. Plates are centrifuged at 500 rpm for 1 minute, covered with a plate lid, and incubated at 37° C. for 2.25 hours. Plates are then removed from the incubator and allowed to cool to RT for 15 minutes. Five microliters of 50 nM biotin-NRF2 protein is then added to all wells of the plates and the plates are spun at 500 rpm for 1 minute, followed by incubating at 4° C. for 1.25 hours. The plates are then allowed to warm to RT for 15 minutes, followed by the addition of 10 ul of detection mix (1 nM Streptavidin Eu+ W1024 and 5 ug/ml mouse anti-DYKDDDDK IgG conjugated to SureLight APC antibody; both from Columbia Biosciences) to all wells. Plates are spun at 500 rpm for 1 minute, incubated for 1 hour at RT, and read on an Envision plate reader using a 320 nm excitation filter and 615 nm and 665 nm emission filters. Compound response (% inhibition) and potency (pIC50) are calculated based on the ratio of the two emissions (665 nm/615 nm) and then the transformed data is normalized against controls in the assay (control 1=1% DMSO in the presence of NRF2 and Keap1 protein and control 2=1% DMSO in the absence of protein). Data analysis is handled using the software package Abase XE (Surrey, United Kingdom). The % inhibition values are calculated from the ratio (transformed) data by the equation: 100−(100*(compound response-average control 2)/(average control 1−average control 2)).
For calculation of pIC50s, Abase XE uses a four parameter equation.

| IC50 (Keap1/NRF2) | IC50 (NRF2/Keap1) | SMILES | EC50 [1] |
| --- | --- | --- | --- |
| 0.01 to 0.1 µM | 0.1 to 1 µM | O=C(O)c1cnn(-c2cccc(C3CCCC(C(=O)N4CCCC4C4CCC4)C3)c2)c1C1CC1 (racemic) [Example 13, 1-{3-[3-(2-cyclobutylpyrrolidine-1-carbonyl)cyclohexyl]phenyl}-5-cyclopropyl-1H-pyrazole-4-carboxylic Acid] | 1 to 10 µM |
| 0.1 to 1 µM | 1 to 10 µM | O=C(O)c1cnn(-c2cccc(C3CCCC(n4ncc5c4CCCCC5)C3)c2)c1C1CC1 (racemic) [Example 9, 1-[3-(3-{1H,4H,5H,6H,7H,8H-cyclohepta[c]pyrazol-1-yl}cyclohexyl)phenyl]-5-cyclopropyl-1H-pyrazole-4-carboxylic Acid] | 1 to 10 µM |
| 0.1 to 1 µM | 1 to 10 µM | CCCC1CCCCC1N(C)C(=O)C1CCCC(c2cccc(-n3ncc(C(=O)O)c3C3CC3)c2)C1 (stereo not drawn) [Example 22, 5-Cyclopropyl-1-(3-(3-(methyl(2-propylcyclohexyl)carbamoyl)cyclohexyl)phenyl)-1H-pyrazole-4-carboxylic Acid] | 1 to 10 µM |
| 0.1 to 1 µM | 1 to 10 µM | CC1CCN(C(=O)C2CCCC(c3cccc(-n4ncc(C(=O)O)c4C4CC4)c3)C2)C1 (racemic) [Example 25, 5-Cyclopropyl-1-{3-[3-(3-methyl-pyrrolidine-1-carbonyl)-cyclohexyl]-phenyl}-1H-pyrazole-4-carboxylic Acid] | 1 to 10 µM |
| 0.1 to 1 µM | 1 to 10 µM | O=C(O)c1cnn(-c2cccc([C@@H]3CCC[C@H](C(=O)N4CCCC5(CCCC5)C4)C3)c2)c1C1CC1 (racemic) [Example 4, 1-[3-(3-{7-Azaspiro[4.5]decane-7-carbonyl}cyclohexyl)phenyl]-5-cyclopropyl-1H-pyrazole-4-carboxylic Acid] | 1 to 10 µM |
| 0.1 to 1 µM | 1 to 10 µM | CN(C)C(=O)[C@H]1CCC[C@@H](c2cccc(-n3ncc(C(=O)O)c3C3CC3)c2)C1 (racemic) [Example 1, 5-Cyclopropyl-1-{3-[3-(dimethylcarbamoyl)cyclohexyl]phenyl}-1H-pyrazole-4-carboxylic Acid] | 1 to 10 µM |
| 0.1 to 1 µM | 1 to 10 µM | CCCC1CCCCN1C(=O)[C@H]1CCC[C@@H](c2cccc(-n3ncc(C(=O)O)c3C3CC3)c2)C1 (mixture of isomers) [Example 5, 5-Cyclopropyl-1-{3-[3-(2-propylpiperidine-1-carbonyl)cyclohexyl]phenyl}-1H-pyrazole-4-carboxylic Acid] | 1 to 10 µM |
| 0.1 to 1 µM | 1 to 10 µM | CC1CCc2cnn([C@@H]3CCC[C@H](c4cccc(-n5ncc(C(=O)O)c5C5CC5)c4)C3)c21 (mixture of isomers) [Example 14, 5-Cyclopropyl-1-{3-[(cis)-3-(6-methyl-5,6-dihydro-4H-cyclopentapyrazol-1-yl)-cyclohexyl]-phenyl}-1H-pyrazole-4-carboxylic Acid] | 1 to 10 µM |
